Data from patent publication US10220100B2, “Halogenated phenols for diagnostics, antioxidant protection and drug delivery” (priority 2011, dated 2019).

What was measured:
[1] = test system: spontaneous mammary tumors; conditions: 10 mg by gavage; X-ray imaging about two hours after; mice with spontaneous tumors; same mice before treatment showed no foci
Excerpt: As described above, oxidative foci or tumors may be identified by X-ray radiographic imaging of animals following administration of an indigogenic compound of the present invention. The radio-opaque indigo-like product formed and deposited with residence time in FROS-containing tumor tissues may then be detected.
In this example, female C3H/HeN mice were obtained as multiparous retired breeders (i.e., after 3 to 4 litters) that were positive for a mammary tumor virus. […] Mice showing spontaneous tumors were given 10 mg of 5-Iodo-Indoxyl-3′,5′-Diiodo-4′-hydroxy ether substrate (product of Example 4) by gavage. These mice were then subjected to X-ray imaging of the tumors about two hours after being fed the iodo-indigogenic compound. […] When developed, the X-ray film appears dark in areas where more transmission occurs and light in areas where less transmission occurs.

[2] = test system: sites of the wound or injury; conditions: mice administered the compound, small injuries (cuts, scratches); data not shown
thyroid hormone activity = conditions: cited from earlier work
[3] = Cleavage of the C—C bond during the oxidative dehalogenation reaction; assay type: physicochemical; conditions: presence of free radicals and/or oxidative agents
Excerpt: It has also been discovered that other types of bonds or linkages may also be cleaved by oxidative or free radical-mediated dehalogenation of the phenol ring. For example, as described herein, it has now been observed that a carbonyl linkage, a nitrogen linkage, a sulfinyl linkage and possibly a C—C bond on the phenol ring may also be cleaved by the oxidative dehalogenation reaction. These bonds are also considered stable, and their cleavage in connection with the dehalogenation reaction is surprising as well. One caveat with the C—C bond or linkage is that depending on the particular starting compound structure and the substituents or groups attached to the halogenated phenol ring via the C—C bond, the C—C bond or linkage may or may not be generally cleaved during or following the dehalogenation reaction (see below). […] However, other compounds do become cleaved. It is important to note that whether a C—C bond of a particular starting compound is “cleavable,” or becomes cleaved, may not be all-or-nothing (i.e., the C—C bond may be considered non-cleavable even though a small or minute amount of cleavage may occur, and vice versa). Thus, the amount or percentage of cleavage may be partial with the alternatively cleaved or non-cleaved product being possibly undetected or minute. […]

[4] = Spontaneous dehalogenation and ether cleavage in buffered aqueous solution exposed to sunlight; assay type: physicochemical; conditions: about 1 mM in carbonate buffer (pH 8.0), sunlight for about one hour; yellow/orange solution, iodide released
Excerpt: In contrast to reductive deiodination, spontaneous dehalogenation (e.g., deiodination) of a halogentated phenol ring in the presence of an oxidizing agent(s) and/or free radical(s) with cleavage of a chemical linkage, such as an ether linkage, etc., between the phenol ring and a conjugated compound has not been described. According to the present invention, cleavage of the ether linkage between the aromatic rings of thyroid hormone may form visibly colored quinone and iodine-containing products in buffered aqueous solutions in vitro, and this ether cleavage reaction may be accelerated under basic pH conditions and with exposure to ionizing radiation or light. These conditions favor the increased formation of oxidizing agents and/or free radicals, which are believed to promote the reaction. […] A quinone and an iodotyrosine product are also formed by cleavage of the ether linkage during the reaction. According to embodiments of the present invention, a spontaneous reaction of dehalogenation and cleavage of a chemical bond is proposed for the targeted delivery and release of a drug compound at or to sites of inflammation or disease. This spontaneous reaction is further proposed as a basis for scavenging free radicals and/or oxidative agents (FROS) as well as for the creation of a detectable compound(s) that may be used for diagnostic purposes.

Compound: Oc1c(I)cc(Oc2c[nH]c3ccc(I)cc23)cc1I [5-Iodo-Indolyl-3′,5′-Diiodo-4′-hydroxyl-p-Phenol Ether]
- radio-opaque tumor regions or foci by X-ray [1]: radio-opaque tumor regions or foci
- X-ray detection at sites of wound or injury [2]: strong detection was observed at the sites of the wound or injury

Compound: N[C@@H](Cc1ccc(Oc2cc(I)c(O)c(I)c2)c(I)c1)C(=O)O [Reverse T3, 3,3′,5′-triiodothyronine]
- thyroid hormone activity (thyroid hormone activity): no measurable thyroid hormone activity

Compound: N[C@@H](Cc1ccc(O)c(I)c1)C(=O)O [mono-iodotyrosine, 3-iodo-4-hydroxy-L-phenylalanine]
- cleavage of C—C bond with the dehalogenation reaction [3]: generally not to be cleaved
- cleavage of C—C bond with the dehalogenation reaction ([3]; listed as MIT): generally not be cleaved

Compound: N[C@@H](Cc1cc(I)c(Oc2cc(I)c(O)c(I)c2)c(I)c1)C(=O)O [thyroxine]
- cleavage of the ether linkage [4]: the ether linkage is broken spontaneously
